The numbers were not newly measured in patent publication US8455667B2, “Duloxetine compositions in the form of a powder for suspension in a liquid” (priority 2005, dated 2013), which cites them from elsewhere.

The subject of series [1] is adrenergic receptors. Particulars: in vitro.
Series [2] relates to histaminergic receptors. Particulars: in vitro.
Series [3] concerns cholinergic receptors. The conditions noted are these: in vitro.
Series [4] concerns monoamine oxidase (MAO).
The conditions of series [5]: in vivo.
For series [6], the system named is dopaminergic receptors. Particulars: in vitro.

As to `CNCC[C@H](Oc1cccc2ccccc12)c1cccs1` [Duloxetine, (S)-N-methyl-3-(1-naphthyloxy)-3-(2-thienyl) propan-1-amine], under “pH 1.0, within one hour”, the “dosage hydrolyzed to 1-naphthol” value is 50%. In addition, the “dosage degraded to 1-Naphthol” value (pH 2.0, in one hour) was 10%. The “time for 10% degradation” value (pH 4.0) is “up to 63 hours”. Also, the “affinity for adrenergic receptors” value in series [1] is recorded as “no significant affinity”. Further, the “affinity for histaminergic receptors” value in series [2] was “no significant affinity”. For the same compound, the “affinity for cholinergic receptors” value in series [3] is listed as “no significant affinity”. The “inhibition of monoamine oxidase (MAO)” value in series [4] is on record as “does not inhibit”. Further, the “mean plasma elimination half-life” value in series [5] was 12.1 h. For the same compound, the “affinity for dopaminergic receptors” value in series [6] is reported as “no significant affinity”.
